Non-standard residues stand in square brackets, D forms with d. NMeV = CN[C@H](C(=O)O)C(C)C
Assays:
[1] = test system: FAK, p-FAK, p44/42erk-1/2, p-p44/42erk-1/2 in αvβ3+ M21 cells; assay: Western blot of FAK and p44/42erk-1/2 expression and activation, M21 cells; type: cell-based
Method: (§1) Since agonistic ligand performance requires integrin activation and signaling, by Western blot analysis, we studied whether the different ligands alter the expression levels and activation states of FAK and p44/42^(erk-1/2). For this, the respective target integrin-expressing tumor cell types were incubated with the corresponding subtype-selective ligand at a concentration of 1 μM for 24 h (Figure 8). […] Signal intensities of FAK and p44/42^(erk-1/2) expression and activation (p-FAK and p-p44/42^(erk-1/2)) on Western blots were evaluated by densitometry. Data are depicted as GAPDH-normalized fluorescence signal intensities as n-fold, by setting values obtained for the respective untreated cells to “1”. […] MAPK p44/42^(erk-1/2) expression was approximately 2.2-fold augmented, p44/42^(erk-1/2) by approximately 2.5-fold. It also raised activation of p-FAK and p-p44/42^(erk-1/2) by approximately 2.2-fold and 3.1-fold, respectively, in α5β1+ OV-MZ-6 cells. […] Additionally, it raised FAK (approximately 1.7-fold) and p-p44/42^(erk-1/2) (approximately 2.4-fold) in α5β1+ OV-MZ-6 cells.
(§2) Figure 8 Effects of ligands on cellular expression and activation of integrin-related signaling molecules FAK and p44/42^(erk-1/2). […] Signal intensities for FAK and p-FAK, respectively, were evaluated by use of the Bio-Rad Imager Gel Doc XR+ and a ChemiDoc XRS+ Systems and the software Image Lab. Shown are typical representative Western blot images and the corresponding histograms depicting GAPDH-normalized signal intensities as n-fold by setting the values obtained for untreated cells to “1” (drawn as black line). For each cell line, cutouts of identical gels are depicted.
(§3) In order to capture early and transient changes in signaling activation following ligand treatment, we next reduced the observation periods to 5, 30, or 60 min and assessed FAK expression and activation. […] Depicted are typical Western blot images and the corresponding densitometrical evaluations of GAPDH-normalized signal intensities as n-fold, by setting that of the respective untreated cell type to “1” (Figure 9). […]
(§4) The kinases (p-)p44/42^(erk-1/2) and (p-)FAK were detected as previously published.[15],[8] Briefly, cells were grown for 18 h on six-well plates in DMEM (0.45 Mio cells/well). After medium exchange, fresh medium with L1–L5 (concentration: 1.0 μM, 2 mL/well) was added, and cells were incubated for another 24 h at 37 °C. In a second series, cells were incubated with L1–L5 (1 μM or 1 nM) for 5, 30, or 60 min. Thereafter, the cellular proteins were extracted and processed by Western blotting. Proteins were visualized using the Pierce ECL chemiluminescent substrate (Thermo Fisher Scientific). Band signal intensities for (p-)p44/42^(erk-1/2) and (p-)FAK were evaluated using the Bio-Rad Imager Gel Doc XR + and ChemiDoc XRS + Systems and the software Image Lab. Differences in protein loading and blotting efficiency were normalized by reprobing the membranes with a monoclonal antibody directed to GAPDH. Signal intensities for protein bands of interest were normalized to those recorded for GAPDH. Typical Western blot images are depicted together with histograms summarizing the mean values of normalized fluorescence signal intensities as n-fold, by setting those obtained for untreated cells to “1”.

[2] = test system: FAK, p-FAK, p44/42erk-1/2, p-p44/42erk-1/2 in α5β1+ OV-MZ-6 cells; assay: Western blot of FAK and p44/42erk-1/2 expression and activation, OV-MZ-6 cells; type: cell-based; details: 1 μM, 5, 30 or 60 min
Method: as §1, §2, §3, §4

αvβ3+ M21 cells = assay: Wound scratch cell migration assay, M21 cells; type: cell-based
Method: (§5) As a biological readout for integrin signaling, we analyzed ligand effects on cell adhesion and migration by wound scratch assays (Figure 10A,B). […] Microscopical images were taken directly after wounding the cell monolayers and then after 9, 24, 48, and 72 h, respectively.
(§6) Figure 10 (A) Effect of integrin ligands on cancer cell migration. […] Microscopical measurements of wound gaps were taken directly after setting the wound scratch and then after 9, 24, 48, and 72 h, respectively. Wound scratch assays were repeated at least three times. The extent of wound gap closure [%]/cell coverage was calculated by a python script utilizing Canny’s Edge Detection algorithm as described under Materials and summarized in the corresponding histograms (see also Scheme S5 in the Supporting Information). (B) Adhesion of M21, OV-MZ-6, and HN cells in the presence of the respective integrin targeting ligand at low (1 nM) and high (1 μM) concentrations. […] Depicted are typical microscopical images of the respective cell monolayers.
(§7) The assays were performed according to a modified protocol as previously published.[94] Cells were cultivated on fibronectin-coated 12-well cell culture plates until cell monolayers reached an approximately 80% confluency. Then, the wound scratch was set utilizing a 200 μL pipet tip. Subsequently, fresh culture medium was added in the absence or presence of L1–L5 (concentration: 1 μM or 1 nM), and microscopical images (Zeiss, Oberkochen, Germany) were taken at two identical positions of the wound gap directly after wounding and then at 9, 24, 48, or 72 h of further cell cultivation. Each wound scratch assay was repeated three times. A custom python script was implemented to analyze wound gap closure over time: after cropping the images, we used the OpenCV[95] implementation of Canny’s Edge Detection Algorithm[96] to ensure reliable measurements even with variable lighting conditions.[97] As a first step, a 5 × 5 Gaussian filter was applied to remove background noise. The smoothened images were then filtered by a Sobel kernel[98] and the magnitude and direction of the intensity gradient of the images calculated. Then, a non-maximum suppression algorithm was applied to identify relevant pixels that presumably contribute to edges. In a final step, threshold hysteresis was utilized to distinguish true edges from variations in intensity or the remaining background noise. The resulting images were then segmented and binarized by use of a grid filter and analyzed with respect to cell-covered area relative to the start image of each series.

α5β1+ OV-MZ-6 cells = assay: Wound scratch cell migration assay, OV-MZ-6 cells; type: cell-based; details: OV-MZ-6 cells
Method: as §5, §6, §7
Scheme S5. Effect of integrin ligands on cancer cell migration (control cells to Fig. 10A in the main manuscript). a) Integrin αvβ3- OV-MZ-6 cells, α5β1- M21 cells, α5β1+ and αvβ3- and […]
mages of wound gaps were taken directly after setting the wound scratch and then after […], respectively. Wound scratch assays were repeated at least 3 times. The extent of wound gap closure [%]/cell coverage was calculated by a python script utilizing Canny’s Edge Detection algorithm11 as described in the Experimental Section and summarized in the corresponding histograms.
(1 picture or pasted object on this page, not shown here)

M21 cells = assay: Cell adhesion in the presence of ligand, M21 cells; type: cell-based; details: 1 μM
Method: as §6

glioblastoma = details: phase II and III trials; cited from earlier work
tumor angiogenesis = details: low dose; cited from earlier work
human αvβ3-integrin = biological target: T1, human αvβ3-integrin (Homo sapiens, UniProt P05106+P06756); details: previously published values; cited from earlier work
T1 construct: purchased R&D 3050-AV-050
T1 sequence (P06756 31-992 limits assumed): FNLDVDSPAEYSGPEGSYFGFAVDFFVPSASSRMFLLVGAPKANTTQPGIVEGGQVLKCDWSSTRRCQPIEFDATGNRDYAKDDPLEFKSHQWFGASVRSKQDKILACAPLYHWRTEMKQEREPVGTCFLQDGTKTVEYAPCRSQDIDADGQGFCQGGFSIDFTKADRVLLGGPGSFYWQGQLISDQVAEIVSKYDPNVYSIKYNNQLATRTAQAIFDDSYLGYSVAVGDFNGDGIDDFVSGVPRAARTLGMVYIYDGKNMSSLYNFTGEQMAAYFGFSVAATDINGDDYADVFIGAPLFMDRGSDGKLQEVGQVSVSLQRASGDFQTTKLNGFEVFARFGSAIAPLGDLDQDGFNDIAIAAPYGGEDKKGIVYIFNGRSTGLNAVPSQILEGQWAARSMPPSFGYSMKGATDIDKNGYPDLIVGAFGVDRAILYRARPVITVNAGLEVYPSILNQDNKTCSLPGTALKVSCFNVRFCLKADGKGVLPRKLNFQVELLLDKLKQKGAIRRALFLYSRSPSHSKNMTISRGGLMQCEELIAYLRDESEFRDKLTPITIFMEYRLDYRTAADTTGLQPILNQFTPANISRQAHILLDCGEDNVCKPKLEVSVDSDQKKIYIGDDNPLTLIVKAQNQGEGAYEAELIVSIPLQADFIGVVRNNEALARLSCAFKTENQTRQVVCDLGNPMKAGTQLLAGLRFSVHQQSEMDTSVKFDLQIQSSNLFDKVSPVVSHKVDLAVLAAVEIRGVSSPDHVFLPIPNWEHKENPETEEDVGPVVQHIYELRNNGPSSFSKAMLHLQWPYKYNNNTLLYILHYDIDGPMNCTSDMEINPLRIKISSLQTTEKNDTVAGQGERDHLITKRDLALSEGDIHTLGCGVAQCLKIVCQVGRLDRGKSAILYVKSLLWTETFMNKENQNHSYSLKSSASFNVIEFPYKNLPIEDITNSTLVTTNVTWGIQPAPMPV
T1 sequence (P05106 27-718 limits assumed): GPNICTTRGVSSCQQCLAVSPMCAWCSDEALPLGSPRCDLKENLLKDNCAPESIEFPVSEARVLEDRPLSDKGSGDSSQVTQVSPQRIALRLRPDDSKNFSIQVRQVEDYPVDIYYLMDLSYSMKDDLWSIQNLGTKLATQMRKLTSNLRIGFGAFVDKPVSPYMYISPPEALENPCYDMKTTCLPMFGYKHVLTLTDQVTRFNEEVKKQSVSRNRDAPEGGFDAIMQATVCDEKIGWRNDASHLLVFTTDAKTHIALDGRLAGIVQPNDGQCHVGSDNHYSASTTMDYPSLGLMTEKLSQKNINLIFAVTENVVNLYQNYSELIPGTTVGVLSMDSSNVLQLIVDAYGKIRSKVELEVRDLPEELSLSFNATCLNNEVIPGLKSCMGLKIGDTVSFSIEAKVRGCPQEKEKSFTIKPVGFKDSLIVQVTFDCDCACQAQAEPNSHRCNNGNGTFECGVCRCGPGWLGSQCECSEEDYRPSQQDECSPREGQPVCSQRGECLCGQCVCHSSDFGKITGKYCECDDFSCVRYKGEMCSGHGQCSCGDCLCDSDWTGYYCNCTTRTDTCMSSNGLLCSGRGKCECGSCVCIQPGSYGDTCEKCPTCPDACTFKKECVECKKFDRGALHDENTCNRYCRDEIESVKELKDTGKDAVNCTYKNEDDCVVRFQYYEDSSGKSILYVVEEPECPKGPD

human α5β1-integrin = biological target: T2, human α5β1-integrin (Homo sapiens, UniProt P05556+P08648); details: previously published values; cited from earlier work
T2 construct: purchased R&D 3230-A5-050
T2 sequence (P08648 42-995 limits assumed): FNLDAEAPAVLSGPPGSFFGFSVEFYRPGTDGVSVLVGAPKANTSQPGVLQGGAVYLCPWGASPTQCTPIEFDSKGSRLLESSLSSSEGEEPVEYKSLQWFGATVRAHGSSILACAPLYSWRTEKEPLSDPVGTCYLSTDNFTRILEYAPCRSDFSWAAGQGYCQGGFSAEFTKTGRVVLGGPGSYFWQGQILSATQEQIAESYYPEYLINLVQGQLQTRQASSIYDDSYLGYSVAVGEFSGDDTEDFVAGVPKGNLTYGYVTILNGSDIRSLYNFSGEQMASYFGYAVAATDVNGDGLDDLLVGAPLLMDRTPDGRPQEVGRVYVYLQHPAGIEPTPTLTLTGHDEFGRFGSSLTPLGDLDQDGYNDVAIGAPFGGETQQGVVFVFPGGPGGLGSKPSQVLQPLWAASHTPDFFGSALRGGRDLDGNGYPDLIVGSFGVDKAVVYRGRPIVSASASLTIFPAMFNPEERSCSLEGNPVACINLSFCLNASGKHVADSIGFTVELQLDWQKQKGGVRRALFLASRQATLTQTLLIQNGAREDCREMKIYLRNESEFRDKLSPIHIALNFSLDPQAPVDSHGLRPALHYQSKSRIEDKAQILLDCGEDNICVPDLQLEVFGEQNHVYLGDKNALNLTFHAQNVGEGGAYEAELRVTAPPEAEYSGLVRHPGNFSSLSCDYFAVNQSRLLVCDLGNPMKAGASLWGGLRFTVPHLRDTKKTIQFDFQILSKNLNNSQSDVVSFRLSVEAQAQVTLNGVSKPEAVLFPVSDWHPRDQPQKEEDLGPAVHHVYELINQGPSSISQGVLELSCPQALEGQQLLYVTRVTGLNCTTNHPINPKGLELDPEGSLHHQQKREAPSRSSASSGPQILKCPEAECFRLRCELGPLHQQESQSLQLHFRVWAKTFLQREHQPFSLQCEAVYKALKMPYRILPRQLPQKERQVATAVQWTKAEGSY
T2 sequence (P05556 21-728 limits assumed): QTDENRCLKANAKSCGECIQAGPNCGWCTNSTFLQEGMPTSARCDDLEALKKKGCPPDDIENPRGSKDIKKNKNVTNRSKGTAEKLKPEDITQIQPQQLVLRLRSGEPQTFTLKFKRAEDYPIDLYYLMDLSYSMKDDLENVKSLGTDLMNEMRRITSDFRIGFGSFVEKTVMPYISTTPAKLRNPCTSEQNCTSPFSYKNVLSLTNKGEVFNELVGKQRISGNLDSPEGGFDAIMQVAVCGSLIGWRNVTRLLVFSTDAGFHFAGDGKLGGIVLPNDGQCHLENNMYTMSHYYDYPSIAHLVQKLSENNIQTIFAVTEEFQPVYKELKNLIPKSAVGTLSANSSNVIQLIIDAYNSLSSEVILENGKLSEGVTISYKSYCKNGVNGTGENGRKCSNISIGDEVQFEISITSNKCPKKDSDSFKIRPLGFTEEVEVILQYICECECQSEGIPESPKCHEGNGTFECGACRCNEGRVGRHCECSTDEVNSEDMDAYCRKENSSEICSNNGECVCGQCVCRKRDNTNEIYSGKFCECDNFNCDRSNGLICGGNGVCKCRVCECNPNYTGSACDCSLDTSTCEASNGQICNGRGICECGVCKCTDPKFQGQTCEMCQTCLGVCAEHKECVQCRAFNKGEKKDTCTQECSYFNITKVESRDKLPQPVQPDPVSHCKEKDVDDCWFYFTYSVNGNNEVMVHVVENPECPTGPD

human αvβ6-integrin = biological target: T3, human αvβ6-integrin (Homo sapiens, UniProt P06756+P18564); details: previously published values; cited from earlier work
T3 construct: purchased R&D 3817-AV-050
T3 sequence (P06756 31-992 limits assumed): as the sequence (P06756 31-992 limits assumed) above
T3 sequence (P18564 22-707 limits assumed): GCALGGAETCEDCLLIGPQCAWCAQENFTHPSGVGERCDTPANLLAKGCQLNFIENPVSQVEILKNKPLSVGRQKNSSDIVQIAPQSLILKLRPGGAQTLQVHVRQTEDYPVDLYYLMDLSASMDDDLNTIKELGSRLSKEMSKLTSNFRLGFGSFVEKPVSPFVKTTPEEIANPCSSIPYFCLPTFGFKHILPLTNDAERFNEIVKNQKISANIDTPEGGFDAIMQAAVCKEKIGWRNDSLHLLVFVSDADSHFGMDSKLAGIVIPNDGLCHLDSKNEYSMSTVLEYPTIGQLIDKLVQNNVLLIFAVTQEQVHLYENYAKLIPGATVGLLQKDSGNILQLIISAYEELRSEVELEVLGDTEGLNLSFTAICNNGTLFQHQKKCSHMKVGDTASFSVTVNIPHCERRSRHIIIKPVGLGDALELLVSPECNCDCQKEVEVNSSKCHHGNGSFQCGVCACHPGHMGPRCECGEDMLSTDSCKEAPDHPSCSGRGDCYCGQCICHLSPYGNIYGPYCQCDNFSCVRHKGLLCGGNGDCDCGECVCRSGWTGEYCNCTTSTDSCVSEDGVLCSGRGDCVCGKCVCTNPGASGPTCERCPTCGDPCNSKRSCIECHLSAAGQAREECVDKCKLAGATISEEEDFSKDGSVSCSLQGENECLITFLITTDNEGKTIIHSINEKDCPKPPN

| Substance | FAK expression versus untreated cells ([1]; 1 nM, 5, 30 or 60 min) | FAK expression versus untreated cells ([1]; 1 μM, 5, 30 or 60 min) | Decrease of p-FAK levels within 60 min ([1]; both concentrations (1 nM, 1 μM)) | p-FAK levels versus untreated cells ([1]; both concentrations (1 nM, 1 μM), up to 60 min) | FAK expression versus untreated cells [2] | Effect on wound gap closure / cell migration (αvβ3+ M21 cells; 1 nM) | Effect on wound gap closure / cell migration (αvβ3+ M21 cells; 1 μM) | Reduction of wound gap closure (αvβ3+ M21 cells; 1 μM, after 9 h) | Cell coverage (wound gap closure) (αvβ3+ M21 cells; 1 μM, within 72 h) | Effect on wound gap closure / cell migration (α5β1+ OV-MZ-6 cells; 1 nM) | Cell coverage (wound gap closure) (α5β1+ OV-MZ-6 cells; 1 μM, within 72 h) | Effect on cell adhesion / attachment (M21 cells) | Effect on cell adhesion / attachment (M21 cells; listed as CIL/L2) | Clinical efficacy (glioblastoma) | Effect on tumor angiogenesis (tumor angiogenesis) | IC50 (human αvβ3-integrin) | IC50 (human α5β1-integrin) | IC50 (human αvβ6-integrin) |
| --- | --- | --- | --- | --- | --- | --- | --- | --- | --- | --- | --- | --- | --- | --- | --- | --- | --- | --- |
| c(RGDf(NMe)V) (cyclo(RGD[dF][NMeV])) [cilengitide (L2), reference compound] | comparable to or slightly higher than in untreated | comparable to or slightly higher than in untreated | approximately threefold | almost comparable to that in untreated M21 cells | comparable to or slightly higher than in untreated | increased wound gap closure | markedly delaying wound gap closure | approximately threefold | approximately 40% | not effective | approximately 60% | abrogating adhesion and spreading | performed as inhibitors of cell attachment | poor clinical efficacy | rather promoted than inhibited tumor angiogenesis | – | – | – |
| RTDLDSLRT [linear peptide, internal standard for αvβ6, reference compound] | – | – | – | – | – | – | – | – | – | – | – | – | – | – | – | > 1000 nM | > 1000 nM | 29.5 ± 4.5 nM |

— article PMC11874007, “Switching Roles—Exploring Concentration-Dependent Agonistic versus Antagonistic Behavior of Integrin Ligands” (Journal of Medicinal Chemistry, 2025)
